Results as given in ChEMBL document CHEMBL5046245, “Identification of Pyruvate Carboxylase as the Cellular Target of Natural Bibenzyls with Potent Anticancer Activity against Hepatocellular Carcinoma via Metabolic Reprogramming” (J Med Chem, 2022).
Activity calls are given as the source filed them. The calls are words filed in the database; no cut-off is given here.

Key:
HepG2 [1] = assay: Cytotoxicity against human HepG2 cells assessed as cell viability at 62.5 to 250 nM preincubated for 48 hrs by MTT assay; type: functional, cell-based; details: dose 62.5-250 nM
SK-HEP1 [2] = assay: Anti-invasive activity in human SK-HEP1 cells overexpressing PC assessed as suppression of cell invasion at 0.05 nM measured after 48 hrs by transwell assay; type: functional, cell-based
[3] = target: AMP-activated protein kinase, AMPK (Homo sapiens) (UniProt P54646+O43741+P54619+Q9UGJ0+Q9Y478+Q13131+Q9UGI9); assay: Activation of AMPK pathway in human HCCLM3 cells assessed as increase in AMPK phosphorylation level at 5 nM measured after 1 hr by Western blot analysis; type: cell-based; details: filed as activator
[4] = Inhibition of pyruvate carboxylase in human HCCLM3 cells measured upto 24 hrs by PC assay kit; type: cell-based
SK-HEP1 [5] = assay: Inhibition of epithelial transition in human SK-HEP1 cells overexpressing PC assessed as effect on E-cadherin expression; type: functional, cell-based
SK-HEP1 [6] = assay: Inhibition of mesenchymal transition in human SK-HEP1 cells overexpressing PC assessed as effect on N-cadherin expression; type: functional, cell-based
HepG2 [7] = assay: Competitive inhibition of recombinant pyruvate carboxylase in human HepG2 cell lysate in presence of Erianin at 20 uM for 120 mins followed by irradiation of 365 nm UV light for 15 min by Native -PAGE analysis; type: subcellular
HCCLM3 [8] = assay: Induction of glycolysis in human HCCLM3 cells assessed as decrease in level of oxaloacetate at 5 nM; type: functional, cell-based
HCCLM3 [9] = assay: Anti-invasive activity against PC knockout human HCCLM3 cells assessed as suppression of cell invasion at 0.05 nM measured after 48 hrs by transwell assay; type: functional, cell-based
HCCLM3 [10] = assay: Induction of apoptosis in human HCCLM3 cells transfected with PC-flag plasmid assessed as reduction in cell viability at 20 to 100 nM incubated for 24 hrs by MTT assay; type: functional, cell-based; details: dose 20-100 nM
HCCLM3 [11] = assay: Induction of glycolysis in human HCCLM3 cells assessed as decrease in level of L-lactate at 5 nM; type: functional, cell-based
HepG2 [12] = assay: Induction of apoptosis in human HepG2 cells assessed as cell shrinkage at 100 nM incubated for 24 hrs by DAPI staining based phase contrast microscopic analysis; type: functional
HCCLM3 [13] = assay: Induction of glycolysis in human HCCLM3 cells assessed as decrease in level of serine at 5 nM; type: functional, cell-based
HCCLM3 [14] = assay: Antimigratory activity against PC knockout human HCCLM3 cells assessed as suppression of cell migration at 0.5 nM measured after 48 hrs by wound healing assay; type: functional, cell-based
[15] = Systemic toxicity in NCR-nu/nu mouse bearing human HCCLM3 tumor assessed as pathological change in kidney at 25 to 50 mg/kg, ip administered alternate days for 21 days and measured 26 days post implantation by H and E staining based analysis; type: organism-based; details: in vivo, 504 h, dose 25-50 mg/kg, time 21 day
HCCLM3 [16] = assay: Induction of apoptosis in human HCCLM3 cells assessed as nuclear condensation at 20 nM incubated for 24 hrs by DAPI staining based phase contrast microscopic analysis; type: functional, cell-based
[17] = Toxicity in NCR-nu/nu mouse bearing human HepG2 tumor assessed as effect on body weight at 25 to 50 mg/kg, ip administered alternate days for 21 days and measured every three days; type: organism-based; details: in vivo, 504 h, dose 25-50 mg/kg, time 21 day
SK-HEP1 [18] = assay: Antiproliferative activity against human SK-HEP1 cells transfected with PC-flag plasmid assessed as reduction in cell viability incubated for 48 hrs by MTT assay; type: functional, cell-based
[19] = Systemic toxicity in NCR-nu/nu mouse bearing human HCCLM3 tumor assessed as pathological change in heart at 25 to 50 mg/kg, ip administered alternate days for 21 days and measured 26 days post implantation by H and E staining based analysis; type: organism-based; details: in vivo, 504 h, dose 25-50 mg/kg, time 21 day
[20] = Inhibition of pyruvate carboxylase in human HCCLM3 cell lysate measured upto 24 hrs by PC assay kit; type: subcellular
[21] = Inhibition of pyruvate carboxylase in human HepG2 cells measured upto 24 hrs by PC assay kit; type: cell-based
HCCLM3 [22] = assay: Induction of glycolysis in human HCCLM3 cells assessed as decrease in level of ATP at 5 nM; type: functional, cell-based
HCCLM3 [23] = assay: Induction of mitochondrial oxidative stress in human HCCLM3 cells assessed as accumulation of ROS at 10 nM by DCFH-DA staining based flow cytometry analysis; type: functional, cell-based; details: TDE = time-dependent effect
HCCLM3 [24] = assay: Induction of glycolysis in human HCCLM3 cells assessed as decrease in level of succinate at 5 nM; type: functional, cell-based
[25] = Toxicity in NCR-nu/nu mouse bearing human HCCLM3 tumor assessed as effect on body weight at 25 to 50 mg/kg, ip administered alternate days for 21 days and measured every three days; type: organism-based; details: in vivo, 504 h, dose 25-50 mg/kg, time 21 day
HCCLM3 [26] = assay: Inhibition of mitochondrial oxidative stress in PC knockout human HCCLM3 cells assessed as reduction in NADH/NAD ratio at 10 nM; type: functional, cell-based
HCCLM3 [27] = assay: Induction of apoptosis in human HCCLM3 cells assessed as decrease in cell viability at 20 to 40 nM incubated for 48 hrs in presence of 2 mM OAA MTT assay; type: functional, cell-based; details: dose 20-40 nM
HCCLM3 [28] = assay: Antimigratory activity in human HCCLM3 cells assessed as inhibition of scratch closure at 0.05 to 1 nM measured after 24 hrs by wound healing assay; type: functional, cell-based; details: dose 0.05-1 nM
L02 = assay: Cytotoxicity against human HL7702 cells assessed as inhibition of cell growth measured upto 400 nM measured after 48 hrs by MTT assay; type: toxicity, cell-based; details: l02, 48 h
HepG2 [29] = assay: Effect on cell cycle arrest in human HepG2 cells assessed as increase in accumulation of cells in G2/M phase at 20 to 80 nM incubated for 24 hrs by propidium iodide staining based flow cytometry analysis; type: functional; details: dose 20-80 nM, TDE = time-dependent effect
HepG2 [30] = assay: Induction of caspase-mediated apoptosis in human HepG2 cells assessed as reduction in cell viability at 100 to 400 nM incubated for 48 hrs in presence of Z-VAD-FMK by MTT assay; type: functional, cell-based; details: dose 100-400 nM
HCCLM3 [31] = assay: Antiinvasive activity against human HCCLM3 cells assessed as reduction in cell invasion at 0.05 to 1 nM by matrigel transwell assay; type: functional, cell-based; details: dose 0.05-1 nM
HCCLM3 [32] = assay: Induction of apoptosis in human HCCLM3 cells xenografted in NCR-nu/nu mouse assessed as increase in total apoptotic cells in tumor at 25 to 50 mg/kg, ip administered alternate days for 21 days and measured 26 days post implantation by TUNEL staining based confocal microscopic analysis; type: functional, organism-based; details: dose 25-50 mg/kg, time 21.0 day
SK-HEP1 [33] = assay: Inhibition of mesenchymal transition in human SK-HEP1 cells overexpressing PC assessed as effect on fibronectin expression; type: functional, cell-based
[34] = Systemic toxicity in NCR-nu/nu mouse bearing human HCCLM3 tumor assessed as pathological change in lung at 25 to 50 mg/kg, ip administered alternate days for 21 days and measured 26 days post implantation by H and E staining based analysis; type: organism-based; details: in vivo, 504 h, dose 25-50 mg/kg, time 21 day
HepG2 [35] = assay: Induction of apoptosis in human HepG2 cells assessed as increase cleaved PARP level measured after 24 hrs by Western blot analysis; type: functional, cell-based; details: dose 10-40 nM

**Q.** For `COc1ccc(CCc2cc(OC)c(OC)c(OC)c2)cc1O`, which Activity (HepG2 [1]) is on record?
**A.** Active

**Q.** What about the Activity (SK-HEP1 [2]) of the same molecule?
**A.** Active

**Q.** And the Activity [3]?
**A.** Active

**Q.** And the IC50 [4]?
**A.** 13100 nM

**Q.** And the inhibition (SK-HEP1 [5])?
**A.** inactive

**Q.** And the inhibition (SK-HEP1 [6])?
**A.** inactive

**Q.** And the inhibition (HepG2 [7])?
**A.** Active

**Q.** What about the Activity (HCCLM3 [8]) of the same molecule?
**A.** Active

**Q.** And the Activity (HCCLM3 [9])?
**A.** Active

**Q.** What about the Activity (HCCLM3 [10]) of the same molecule?
**A.** inactive

**Q.** And the Activity (HCCLM3 [11])?
**A.** Active

**Q.** What about the Activity (HepG2 [12]) of the same molecule?
**A.** Active

**Q.** And the Activity (HCCLM3 [13])?
**A.** Active

**Q.** And the Activity (HCCLM3 [14])?
**A.** Active

**Q.** What about the Activity [15] of the same molecule?
**A.** Non-Toxic

**Q.** And the Activity (HCCLM3 [16])?
**A.** Active

**Q.** What about the Activity [17] of the same molecule?
**A.** Non-Toxic

**Q.** And the Activity (SK-HEP1 [18])?
**A.** Active

**Q.** And the Activity [19]?
**A.** Non-Toxic

**Q.** And the IC50 [20]?
**A.** 5.18 nM

**Q.** And the IC50 [21]?
**A.** 9.35 nM

**Q.** What about the Activity (HCCLM3 [22]) of the same molecule?
**A.** Active

**Q.** What about the Activity (HCCLM3 [23]) of the same molecule?
**A.** Tde

**Q.** What about the Activity (HCCLM3 [24]) of the same molecule?
**A.** Active

**Q.** And the Activity [25]?
**A.** Non-Toxic

**Q.** And the inhibition (HCCLM3 [26])?
**A.** Active

**Q.** What about the Activity (HCCLM3 [27]) of the same molecule?
**A.** inactive

**Q.** What about the Activity (HCCLM3 [28]) of the same molecule?
**A.** Active

**Q.** And the Activity (L02)?
**A.** Non-Toxic

**Q.** And the Activity (HepG2 [29])?
**A.** Tde

**Q.** And the Activity (HepG2 [30])?
**A.** inactive

**Q.** And the Activity (HCCLM3 [31])?
**A.** Active

**Q.** And the Activity (HCCLM3 [32])?
**A.** Active

**Q.** And the inhibition (SK-HEP1 [33])?
**A.** inactive

**Q.** What about the Activity [34] of the same molecule?
**A.** Non-Toxic

**Q.** What about the Activity (HepG2 [35]) of the same molecule?
**A.** Dose-Dependent Effect
